In patent US20180251431A1 (VERTEX PHARMACEUTICALS INCORPORATED, priority 2016, published 2018) one finds IC50 data, which are given here for 17 molecules.

One assay relates to HEK293 cells. Put plainly: HEK293 VLCFA-LPC IC50 determination (13C-labeled C26:0 LPC by UHPLC/MS). It counts as cell-based, human. The conditions noted are these: Homo sapiens, HEK293, 48 h, average of one or more replicates; 13C-labeled C26:0 LPC, 48 hours; read-out: Average HEK293 IC50. Summed up:
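Suspension HEK293 cells (final 0.5 million/mL after mixing with equal volume) incubated 48 hours with compound plus 13C-acetate (1.0 mg/mL in added media), shaking at 37° C. Lipids extracted with hexane/isopropanol or methanol, C13:0 LPC standard. UHPLC/MS of 13C-labeled C26:0 LPC (638.500/104.100 m/z); IC50 by four-parameter fit.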
For `N#Cc1cc(F)cc(-n2ccc(NC(=O)C3(c4ccccc4F)CC3)n2)c1` [Compound 352, N-[1-(3-cyano-5-fluoro-phenyl)pyrazol-3-yl]-1-(2-fluorophenyl)cyclopropanecarboxamide], the IC50 (usually the concentration that gives 50% inhibition) was over 5000 nM.

In the case of `COc1nccc(-n2ccc(NC(=O)C3(c4ccccc4F)CC3)n2)n1` [Compound 330, 1-(2-fluorophenyl)-N-[1-(2-methoxypyrimidin-4-yl)pyrazol-3-yl]cyclopropanecarboxamide], the half-inhibitory concentration (IC50) came to 260 nM.

The assay is the same for the next values; noted with them: Homo sapiens, HEK293, HEK293 cells; average of one or more replicates; read-out: Average HEK293 IC50.
With `O=C(Cc1ccc(F)cc1)Nc1ccn(-c2ncccc2F)n1` [Compound 88, 2-(4-fluorophenyl)-N-[1-(3-fluoro-2-pyridyl)pyrazol-3-yl]acetamide], the 50% inhibitory concentration (IC50) is over 5000 nM.

On to `O=C(Cc1ccccc1)Nc1ccn(-c2cccnc2)n1` [Compound 213, 2-phenyl-N-(1-(pyridin-3-yl)-1H-pyrazol-3-yl)acetamide], for which the half-maximal inhibitory concentration (IC50) was 1200 nM.

`CCC1(C)CC1(C(=O)Nc1ccn(-c2ccnc(F)c2)n1)c1ccccc1` (centres unmarked) [Compound 168, 2-ethyl-N-[1-(2-fluoro-4-pyridyl)pyrazol-3-yl]-2-methyl-1-phenyl-cyclopropanecarboxamide]: the 50% inhibitory concentration (IC50) amounted to 86 nM.

On to `COc1ccccc1C1(C(=O)Nc2ccn(-c3ccnc(F)c3)n2)CC1` [Compound 389, N-[1-(2-fluoro-4-pyridyl)pyrazol-3-yl]-1-(2-methoxyphenyl)cyclopropanecarboxamide], for which the IC50 is over 5000 nM.

Regarding `O=C(Nc1ccn(-c2ccccc2)n1)C1(c2cc(F)cc(F)c2)CC1` [Compound 271, 1-(3,5-difluorophenyl)-N-(1-phenylpyrazol-3-yl)cyclopropanecarboxamide], the IC50 is 650 nM.

On to `O=C(Nc1ccn(-c2cccc(F)c2)n1)C1(c2ccccc2)CC1` [Compound 125, N-[1-(3-fluorophenyl)pyrazol-3-yl]-1-phenyl-cyclopropanecarboxamide], for which the 50% inhibitory concentration (IC50) came out at 71 nM.

In the case of `O=C(Cc1ccccc1F)Nc1ccn(-c2cccnc2)n1` [Compound 235, 2-(2-fluorophenyl)-N-[1-(3-pyridyl)pyrazol-3-yl]acetamide], the IC50 stood at 320 nM.

Consider `Cc1ccccc1CC(=O)Nc1ccn(-c2ccccc2)n1` [Compound 44, 2-(o-tolyl)-N-(1-phenylpyrazol-3-yl)acetamide], for which the 50% inhibitory concentration (IC50) was found to be 240 nM.

As for `O=C(Nc1ccn(-c2ccc(C(F)(F)F)cc2)n1)C1(c2ccccc2F)CC1` [Compound 154, 1-(2-fluorophenyl)-N-[1-[4-(trifluoromethyl)phenyl]pyrazol-3-yl]cyclopropanecarboxamide], the IC50 stood at 360 nM.

With `O=C(Nc1ccn(-c2ccccc2)n1)C1(c2cccc(F)c2F)CC1` [Compound 269, 1-(2,3-difluorophenyl)-N-(1-phenylpyrazol-3-yl)cyclopropanecarboxamide], the concentration for half-maximal inhibition (IC50) is 98 nM.

`O=C(Nc1ccn(-c2ccc(F)cc2)n1)C1(c2ccc(F)cn2)CC1` [Compound 488, N-[1-(4-fluorophenyl)pyrazol-3-yl]-1-(5-fluoro-2-pyridyl)cyclopropanecarboxamide]: the half-maximal inhibitory concentration (IC50) amounted to 510 nM.

Turning to `CC1CC1(C(=O)Nc1ccn(-c2ccc(F)cc2)n1)c1ncccc1F` (centres unmarked) [Compound 505, N-[1-(4-fluorophenyl)pyrazol-3-yl]-1-(3-fluoro-2-pyridyl)-2-methyl-cyclopropanecarboxamide], the IC50 was 110 nM.

`O=C(Nc1ccn(-c2cncc(Cl)c2)n1)C1(c2ncccn2)CC1` [Compound 530, N-[1-(5-chloro-3-pyridyl)pyrazol-3-yl]-1-pyrimidin-2-yl-cyclopropanecarboxamide]: the half-inhibitory concentration (IC50) is over 5000 nM.

`O=C(Cc1cncnc1)Nc1ccn(-c2ccnc(F)c2)n1` [Compound 236, N-[1-(2-fluoro-4-pyridyl)pyrazol-3-yl]-2-pyrimidin-5-yl-acetamide]: the concentration for half-maximal inhibition (IC50) was over 5000 nM.

As to `COc1ccc(C2(C(=O)Nc3ccn(-c4ccnc(F)c4)n3)CC2)cc1` [Compound 249, N-[1-(2-fluoro-4-pyridyl)pyrazol-3-yl]-1-(4-methoxyphenyl)cyclopropanecarboxamide], the IC50 was found to be 640 nM.
